Key:
body core temperature = assay: Body core temperature during 10 day chronic dosing; conditions: b.i.d. oral: nepicastat 5, 15, 50 mg/kg; SKF-102698 50 mg/kg; clonidine 20 ug/kg; d-amphetamine 2 mg/kg; days 1, 5, 10
Protocol: (§1) The effects of chronic dosing of nepicastat were examined. Between three and thirteen days prior to the first dosing day the rats were placed inside the startle apparatus and after a five minute acclimation period they were presented with a 118 dB noise burst on average once a minute (a variable inter-trial interval ranging between 30 and 90 seconds will be used) for 20 minutes. The startle responses were measured and a mean for the last twenty startle response was calculated for each rat.
Rat body core temperatures were obtained by inserting the rectal probe 2 cm into the colon of each rat. Each rat's body core temperature was measured three times and the average of the three reading was calculated. Body core temperature readings were obtained immediately prior to the ten day chronic dosing schedule (to obtain a baseline), and three and half hour after the morning daily dose of nepicastat, and SKF-102698, and 15 minutes prior to the daily administration of clonidine and d-amphetamine, on dosing days one, five and ten. […] Both clonidine (an alpha2 agonist), and d-amphetamine (a dopamine releaser) were used as the positive controls for this assay.
An overall one-way ANOVA with a main effect for treatment was performed at each time on the change from baseline for each animal. Subsequent t-tests were performed for each comparison of interest.

[1] = tested on: spontaneous motor activity; assay: Spontaneous motor activity on day ten of chronic dosing; conditions: day ten of b.i.d. oral dosing, 1 hour
Protocol: as §1
The animals were tested in an enclosed room with a white noise generator running. Motor activity tests were conducted immediately after the body core temperature reading taken on dosing day ten (about 3 hours and 35 minutes after the morning daily dose of nepicastat, and SKF-102698, and 20 minutes prior to the daily administration of clonidine and d-amphetamine on dosing day ten). Motor activity tests were run for one hour. A diagnostic program was run on each of the motor activity chambers prior to each test session to assure that the photo beams and light sensors were operating properly. […] D-amphetamine was used as the positive control for this assay.
Each rats spontaneous locomotion was obtained by calculating the total number of photobeams that the subject broke during the testing session.
Spontaneous motor activity was measured for each animal every 15 min for 1 hour. Each time block (every 15 min) was analyzed separately. Kruskal-Wallis test (nonparametric technique) was performed to test for the difference between treatment groups. If the overall significant difference […], Bonferroni's adjustment for multiple comparisons is then made.

pre-pulse inhibition = assay: Pre-pulse inhibition of acoustic startle on day ten of chronic dosing
Protocol: as §1
(§2) Acoustic startle reactivity (a series of muscle contractions elicited by an intense burst of noise with a rapid onset), and pre-pulse inhibition (sensorimotor gating measured by analyzing any decrease in startle reactivity which occurs when a startling stimulus is immediately preceded by a non startling stimulus) were both measured in eight SR-Lab (San Diego Instruments, San Diego, Calif.) test stations. The rats were placed individually in a Plexiglas cylinder (10 cm diameter) which was housed in a ventilated sound-attenuating enclosure. Acoustic noise bursts (a broad band noise with a rise time and fall time of 1 msec) were presented via a speaker mounted 30 cm above the animal. Also, these speakers produced a 68 dB level of background noise throughout all test sessions. […] A decibel meter was used to calibrate the speakers in each of the eight test station to ±1% of the mean. Additionally, a SR-Lab calibrating instrument was used to calibrate each of the eight startle detection apparatuses to ±2% of the mean. Startle reactivity and pre-pulse inhibition tests were run concurrently immediately alter the motor activity test (about 4 hours and 40 minutes after the morning daily injection of nepicastat, and SKF-102698, and 10 minutes after a supplemental administration of clonidine and d-amphetamine on dosing day ten).

[2] = Change of body weight during 10 day chronic dosing; conditions: 10 days b.i.d. oral dosing
Protocol: as §1
The change from pre-dose in body weights was calculated for each animal for the analysis. A repeated measures two-way ANOVA was used to test for the overall effects of treatment, time and treatment by time interaction. One-way ANOVAS were then performed to test the treatment effect at each day.

locomotor activity = assay: Locomotor activity after acute dosing; assay type: in vivo, Sprague Dawley rats; conditions: 4 h; nepicastat 3-100 mg/kg, SKF-102698 100 mg/kg, clonidine 40 μg/kg
Text: Changes in these behaviors may therefore reflect activity of these compounds in the central nervous system. […] Rats were housed under a normal light/dark cycle with lights on between 0900 Hrs. and 2100 Hrs. Animals were housed in pairs in standard metal wire cages, and food and water were allowed ad libitum. The locomotor activity boxes consisted of a Plexiglas® box measuring 18″×18″ by 12″ high. Surrounding the Plexiglas® boxes were Omnitech Digiscan Monitors (model # RXXCM 16) which consisted of a one inch ban of photobeams and photosensors numbering 32 per box. The number of photobeam breaks were analyzed by an Omnitech Digiscan Analyzer (model # DCM-8). […] Prior to drug administration, each of seventy-two rats was placed in the startle apparatus, and after a 5 minute adaption period they were presented with an acoustic noise burst every 20 seconds for 15 minutes (45 startles total). The average startle was calculated for each rat by taking the mean of startle number 11 through 45 (the first ten startles will be disregarded). Sixty-four of these rats were then placed in one of eight treatment groups such that each group had similar mean startle values. The eight treatment groups were as follows: […] Each day after this testing procedure, eight rats (one rat from each of the eight treatment groups) was injected with their assigned drug treatment and immediately placed individually in a motor activity box. The rats motor activity was monitored for four hours. Next, the rats were placed in a transfer cage for fifteen minutes. At the beginning of this fifteen minutes the rat that has been assigned the clonidine treatment will receive another injection of 40 μg/kg. […] To evaluate motor activity, horizontal activity (number of photobeams broken), number of movements, and rest time were measured. Each parameter was analyzed separately. At each time interval (or called sample), a two-way analysis of variance (ANOVA) was performed using the ranked data (nonparametric technique) to test for the treatment effect blocked by day.

[3] = tested on: acoustic startle reactivity; assay: Acoustic startle reactivity after acute dosing; assay type: in vivo, Sprague Dawley rats; conditions: nepicastat 3-100 mg/kg, SKF-102698 100 mg/kg, clonidine 40 μg/kg
Protocol: A piezoelectric accelerometer transforms the subject's movement into an arbitrary voltage on a scale of 0 to 4095. Prior to drug administration, each of seventy-two rats was placed in the startle apparatus, and after a 5 minute adaption period they were presented with an acoustic noise burst every 20 seconds for 15 minutes (45 startles total). The average startle was calculated for each rat by taking the mean of startle number 11 through 45 (the first ten startles will be disregarded). Sixty-four of these rats were then placed in one of eight treatment groups such that each group had similar mean startle values. The eight treatment groups were as follows: […] Each day after this testing procedure, eight rats (one rat from each of the eight treatment groups) was injected with their assigned drug treatment and immediately placed individually in a motor activity box. The rats motor activity was monitored for four hours. Next, the rats were placed in a transfer cage for fifteen minutes. […] To evaluate startle reactivity, for the 200 milliseconds immediately succeeding each startle the average force exerted by each startled rat over the entire 200 milliseconds, and the maximum force, were measured. […] The startle responses were analyzed using analysis of covariance. […] Therefore, the startle responses were analyzed by time. […]

[4] = tested on: acoustic startle reactivity; assay: Acoustic startle reactivity on day ten of chronic dosing; conditions: rat, in vivo, po
Protocol: as §1, §2

C[C@H](N)Cc1ccccc1 [d-amphetamine]
body core temperature (body core temperature): significantly increasing body core temperature on day one
spontaneous motor (locomotor) activity vs vehicle [1]: significantly higher locomotor activity
percent prepulse inhibition vs vehicle (pre-pulse inhibition; day ten of b.i.d. oral dosing): Neither d-amphetamine nor SKF 102698 was significantly different
change in body weight from pre-dose vs vehicle [2]: significantly smaller change in body weight

Clc1cccc(Cl)c1N=C1NCCN1 [clonidine]
horizontal activity vs vehicle (locomotor activity): significantly more horizontal activities at 2 and 2.5 hours
number of movements vs vehicle (locomotor activity): significantly more movements at 2 hours
rest time vs vehicle (locomotor activity): significantly less rest time at 2 hours
maximum and average startle response vs vehicle [3]: statistically significantly lower
percent prepulse inhibition vs vehicle (pre-pulse inhibition; rat, in vivo, po): just significantly higher percent prepulse inhibition
acoustic startle reactivity vs vehicle [4]: significantly reduced
